Data: ChEMBL document CHEMBL3217526, “Bioguided discovery and pharmacophore modeling of the mycotoxic indole diterpene alkaloids penitrems as breast cancer proliferation, migration, and invasion inhibitors” (Medchemcomm, 2013)
Calls of active or inactive are those of the source. No cut-off for these calls is given here.

Experiments:
MDA-MB-231 [1] = assay: Antiinvasive activity against human MDA-MB-231 cells assessed as inhibition of cell invasion at 15 uM after 24 hrs by BME Cell invasion assay kit; type: functional
Caenorhabditis elegans [2] = assay: Toxicity in L1 stage Caenorhabditis elegans N2 assessed as viability and reproduction at 10 uM; type: organism-based; conditions: in vivo
MCF7 = assay: Antiproliferative activity against human MCF7 cells after 72 hrs by MTT assay; type: functional, cell-based; conditions: MCF7, 72 h
Caenorhabditis elegans [3] = assay: Toxicity in L1 stage Caenorhabditis elegans N2 assessed as viability and reproduction at 50 uM; type: organism-based; conditions: in vivo
MDA-MB-231 [4] = assay: Antimigratory activity in human MDA-MB-231 cells after 24 hrs by wound healing assay; type: functional, cell-based; conditions: MDA-MB-231, 24 h
MDA-MB-231 [5] = assay: Antiproliferative activity against human MDA-MB-231 cells after 72 hrs by MTT assay; type: functional, cell-based; conditions: MDA-MB-231, 72 h

Row | SMILES | inhibition at 15 µM (MDA-MB-231 [1]; MDA-MB-231, 24 h) | Activity (Caenorhabditis elegans [2]) | IC50 (MCF7) | Activity (Caenorhabditis elegans [3]) | IC50 (MDA-MB-231 [4]) | IC50 (MDA-MB-231 [5]) | inhibition (MDA-MB-231 [1])
1 | C=C1Cc2ccc3[nH]c4c5c3c2[C@H]2[C@@H]1C[C@H]2C(C)(C)O[C@H]5[C@@H]1CC[C@@]2(O)C3=C[C@@H](O)[C@@H](C(=C)C)O[C@H]3CC[C@]2(C)[C@@]41C [PENITREM D] | 50% | Non-toxic | 8.3 µM | Non-toxic | 9.2 µM | 29.7 µM | 
2 | C=C1Cc2c(Cl)cc3[nH]c4c5c3c2[C@H]2[C@@H]1C[C@@H]2C(C)(C)O[C@H]5[C@@H]1CC[C@@]2(O)[C@@]35O[C@@H]3[C@@H](O)[C@@H](C(=C)C)O[C@H]5CC[C@]2(C)[C@@]41C [PENITREM F] |  | Non-toxic | 15 µM | Non-toxic | 35 µM | 13.8 µM | inactive
